Results on two molecules are retold here after patent publication US20170304236A1, “ANTIALLERGIC AGENT” (TOHOKU UNIVERSITY, priority 2015, published 2017).

Test [1] relates to NF-κB. In words: NF-κB luciferase reporter assay in HaCaT cells. Format: cell-based, human. The conditions noted are these: TNF-α 100 ng/ml, 2 hours, 16D10 10 or 100 μM, TPCA-1 10 μM. The protocol: The transfection of Path Detect pNF-κB-Luc Plasmid (Stratagane) was performed with X-tremeGENE HP DNA Transfection Reagent in accordance with an accompanying protocol. Human keratinocyte HaCaT cells were seeded at 0.65×10^5 cells/ml into a 12-well plate (Falcon (trademark)), and cultured for 24 hours. […], first, to 50 μl of Opti-MEM at from 15° C. to 25° C., a 500 ng/μl reporter plasmid solution and a 100 ng/μl pGL4.74[hRluc/TK] Vector solution were added at 1 μl each. Next, 1. 5 μl of X-tremeGENE HP DNA Transfection Reagent was added, and the contents were lightly mixed by inversion and then left to standstill at room temperature for 15 minutes to form a transfection complex. Further, the culture supernatant was removed from the cells that had been cultured for 24 hours, and the cells were washed with PBS. After that, 950 μl of 10% FBS-containing MEMα was added to each well. […]
(§1) The measurement of luciferase activity was performed with Dual-Luciferase (trademark) Reporter Assay System in accordance with an accompanying protocol. […] Immediately after that, a Firefly luciferase luminescence integrated value for 10 seconds was calculated with AB-2200-R Luminescencer PSN (ATTO Corporation). After that, 50 μl of Stop&Glo reagent was added and the contents were lightly mixed, and then a Renilla luciferase luminescence integrated value for 10 seconds was measured.

The subject of another test is IKK, IκB, STAT6. In words: Western blot of NF-κB-activating signal and STAT6 phosphorylation in HaCaT cells. The conditions noted are these: 10 minutes; for TNF-α+IL-4 stimulation-induced increase in phosphorylation of IKK / TNF-α+IL-4 stimulation-induced reduction in inhibitory protein IκB of NF-κB: 16D10 100 μM. Format: cell-based, human. A general note: In western blotting, separated proteins are transferred to a membrane and probed.

The subject of test [2] is NF-κB. As to the kind of experiment: NF-κB luciferase reporter assay in KCMH-1 cells. The class given is cell-based, mouse. The conditions noted are these: 16D10 10 μM. The protocol: The transfection of Path Detect pNF-κB-Luc Plasmid (Stratagane) was performed with X-tremeGENE HP DNA Transfection Reagent in accordance with an accompanying protocol. Mouse keratinocyte KCMH-1 cells were seeded at 1×10^5 cells/ml into a 12-well plate (Falcon (trademark)), and cultured for 24 hours. The following day, first, to 50 μl of Opti-MEM at from 15° C. to 25° C., a 500 ng/μl reporter plasmid solution and a 100 ng/μl pGL4.74 [hRluc/TK] Vector solution were added at 1 μl each. Next, 1.5 μl of X-tremeGENE HP DNA Transfection Reagent was added, and the contents were lightly mixed by inversion and then left to stand still at room temperature for 15 minutes to form a transfection complex. Further, the culture supernatant was removed from the cells that had been cultured for 24 hours, and the cells were washed with PBS. After that, 950 μl of 10% FBS-containing MEMα was added to each well. […]
as §1
A general note: Reporter assays use an easily measured gene product as a stand-in for the process of interest.

The subject of test [3] is TSLP. In words: LPS-induced air pouch inflammation in Balb/c mouse. The class given is in vivo. The conditions noted are these: 8 hours after administration into the air pouch. The protocol:
500 μl of air was subcutaneously injected into the back of a Balb/c mouse (6-week-old, male, SLC) to form an air pouch (day 1). Further, 500 μl each of air was injected into the air pouch on day 2, day 5, and day 7. 24 hours after that, 300 μl of a solution prepared by dissolving LPS at 10 ng/ml in 2% (w/v) CMC-Na physiological saline that had been subjected to high-pressure steam sterilization and further dissolving penicillin G potassium and streptomycin sulfate at 0.1 mg/ml each therein was injected into the air pouch to induce inflammation. […]
8 hours after the administration of the solution into the air pouch, the mouse was killed through blood removal by cutting the carotid artery under anesthesia. 300 μl of physiological saline was injected into the air pouch so as to be mixed with air pouch internal fluid, and then the air pouch internal fluid was collected and its weight was measured. An infiltrating leukocyte count was measured with a hemocytometer after the collected air pouch internal fluid had been diluted with physiological saline as appropriate. […] The supernatant was collected, and its TSLP concentration was measured with Mouse TSLP DuoSet (trademark) ELISA (R&D Systems) in accordance with an accompanying protocol. […]

Another test concerns various kinases. As to the kind of experiment: Off-chip Mobility Shift Assay kinase panel (Carna Biosciences). The following applies: 16D10 at 10 μM. Format: biochemical. The protocol: Carna Biosciences, Inc. was entrusted to measure the effect of the test compound 16D10 at 10 μM on the activity of each kinase by Off-chip Mobility Shift Assay (MSA) described on the website of Carna Biosciences, Inc. (http://www.carnabio.com/output/pdf/ProfilingProfilingBook_ja. pdf). Specifically, the measurement was performed by the following method.
The test compound is dissolved in and diluted with DMSO to a 100-fold concentration. Then, the solution is diluted 25-fold with assay buffer to prepare a test compound solution. A control is similarly prepared.
(1) […] of a 4-fold compound solution, 5 mL of a 4-fold Substrate/ATP/Metal solution, and […] of a 2-fold kinase solution are prepared with assay buffer (20 mM HEPES, 0.01% Triton X-100, 2 mM DTT, pH 7.5), and are mixed and incubated in a polypropylene 384-well plate at room temperature for from 1 hour or 5 hours* (*the reaction time is set depending on the kinase); (2) […] of termination buffer (QuickScout Screening Assist MSA; Carna Biosciences) is added to each well; (3) the reaction mixture is applied to a LabChip™ system (PerkinElmer), and the peaks of a product and a substrate peptide are separated and quantified; and (4) a kinase reaction is evaluated on the basis of a product ratio (P/(P+S)) calculated from the peak heights of the product (P) and the substrate (S) peptide.

For test [4], the system named is TSLP. In words: OVA air pouch model in ICR mouse. The class given is in vivo. How it is done:
500 μl of air was subcutaneously injected into the back of an ICR mouse (6-week-old, male, SLC) to form an air pouch (day 1). Further, 500 μl each of air was injected into the air pouch on day 2, day 5, and day 7. 24 hours after that, 300 μl of a solution prepared by dissolving ovalbumin (OVA) at 100 μg/0.3 ml in 2% (w/v) CMC-Na physiological saline that had been subjected to high-pressure steam sterilization and further dissolving penicillin G potassium and streptomycin sulfate at 0.1 mg/ml each therein was injected into the air pouch to induce inflammation. […]
8 hours after the administration of the solution into the air pouch, the mouse was killed through blood removal by cutting the carotid artery under anesthesia. 300 μl of physiological saline was injected into the air pouch so as to be mixed with air pouch internal fluid, and then the air pouch internal fluid was collected and its weight was measured. Its TSLP concentration was measured with Mouse TSLP DuoSet (trademark) ELISA (R&D Systems) in accordance with an accompanying protocol. 14 days after the administration of the solution into the air pouch, blood was collected, and the amount of OVA-specific IgE in serum was measured with an ELISA kit (Anti-ovalbumin IgE (mouse) EIA kit (Cayman 500840)).

The next test concerns TSLP mRNA. In words: TSLP mRNA expression in stimulated HaCaT cells (real-time PCR). The class given is cell-based, human. The following applies: 16D10 10 and 100 μM, 4 hours. An excerpt: […] […] Forward: [NT], Reverse: [NT] rRNA forward: [NT], Reverse: [NT].
Test [5] has as its system TSLP. In words: TSLP production by TNF-α stimulation in PAM212 cells (ELISA). The class given is cell-based, mouse. The conditions noted are these: TNF-α 30 ng/ml, 16D10 1, 3 and 10 μM, 48 hours. How it is done:
After the culture, TSLP in the culture solution was measured by EILSA.
(In general: In an ELISA, binding on a coated surface is turned into a signal by an enzyme label.)

The test system of test [6] is TSLP. As to the kind of experiment: TSLP production in KCMH-1 cells (ELISA). The class given is cell-based, mouse. The conditions noted are these: 24 hours, culture supernatant. The protocol:
KCMH-1 cells (J. Immunol. Methods 402: 9-14 (2013)) were suspended in 10% FBS-containing MEM-α at 1.0×10^5 cells/mL.
The culture supernatant was collected, and a TSLP amount was measured with Mouse TSLP DuoSet (trademark) ELISA (R&D Systems).

Each structure is given as a SMILES string.

Turning to `NC(=O)Nc1sc(-c2ccc(F)cc2)cc1C(N)=O` [TPCA-1, [5-(p-Fluorophennyl)-2-ureido]thiophene-3-carboxamide, reference compound], the “transcriptional activity of NF-κB” value with NF-κB [1] is given as “suppressed the transcriptional activity of NF-κB”. In the test with IKK, IκB, STAT6, the “TNF-α+IL-4 stimulation-induced increase in phosphorylation of IKK” value is “suppressed” and the “TNF-α+IL-4 stimulation-induced reduction in inhibitory protein IκB of NF-κB” value is given as “suppressed”.
For `COc1ccc(OC)c(/C=C/C(=O)c2cc(OC)c(OC)cc2CCNC(C)=O)c1` [16D10, (E)-N-[2-[2-[3-(2,5-dimethoxyphenyl)-1-oxo-2-propen-1-yl]-4,5-dimethoxyphenyl]ethyl]acetamide], the “transcriptional activity of NF-κB” value in the test with NF-κB [2] (KCMH-1 cells, 24 hours) is given as “without suppressing the transcriptional activity of NF-κB”. The TSLP production entry with NF-κB [2] (KCMH-1 mouse keratinocyte cell line) is reported as “suppressed TSLP production”. In the test with TSLP [3], the “TSLP concentration in air pouch internal fluid” value is recorded as “significantly suppressed TSLP production” and the infiltrating leukocyte count result is recorded as “did not reduce infiltrating leucocytes”. In the test on NF-κB [1], the “transcriptional activity of NF-κB” value is recorded as “did not suppress the activity”. For the same molecule, the “activity of each kinase” value with various kinases is given as “did not suppress the activity of each kinase analyzed”. Besides, the “OVA-specific IgE in serum” value with TSLP [4] (14 days after administration into the air pouch) is given as “suppressed the production of OVA-specific IgE”. The “TSLP production by OVA” value with TSLP [4] (air pouch internal fluid, 8 hours after administration) is “significantly suppressed TSLP production by OVA”. Besides, the “expression of TSLP mRNA” value in the test with TSLP mRNA (Poly(I:C) 50 μg/ml stimulation) is “suppressed”. In addition, the “expression of TSLP mRNA” value with TSLP mRNA (TNF-α 100 ng/ml stimulation) is recorded as “suppressed”. For the same molecule, the “TSLP production by TNF-α” value in the test with TSLP [5] was “suppressed TSLP production by TNF-α in a concentration-dependent manner”. In the test with TSLP [6], the TSLP production-suppressing ability entry is “extremely high TSLP production-suppressing ability”. In addition, in the test on IKK, IκB, STAT6, the “TNF-α+IL-4 stimulation-induced increase in phosphorylation of IKK” value is listed as “not suppressed” and the “TNF-α+IL-4 stimulation-induced reduction in inhibitory protein IκB of NF-κB” value was “not suppressed”. Besides, in the test with IKK, IκB, STAT6 (TNF-α + IL-4, 16D10 100 μM), the “increase in phosphorylation of STAT6 by stimulation” value is on record as “did not suppress”.
